# Counter-ions that a name gives are not always drawn.
# Key:
# Type in all cases: cell-based
# C. albicans (ATCC 64549) = test: Microbicidal microplate assay (viable counts), C. albicans
# Experimental: The bacterial strains S. aureus 1800 (CCUG 1800), E. coli 06, and the yeast C. albicans (ATCC 64549) have been used in the microplate assay. All microorganisms were cultured in brain heart infusion medium (BHI) on a shaker over night at 37° C. A volume of the culture was transferred to a new tube with BHI and incubated for two more h on the shaker. The bacteria were harvested in the log phase, washed once and thereafter suspended in the broth used for the microplate assay. The suspension was adjusted spectrophotometrically and diluted to a concentration of approximately 4×10^6 cells per ml at 650 nm. Washed cells were suspended in 0.2% BP (pH 7.0) or BHI medium diluted 1/10 (0.34%, pH 6.7-6.9) (Difco, USA). The concentration of bacterial or fungal cells was spectrophotometrically adjusted. LF or peptide, serially diluted in BHIdil or BP by twofold steps (unless otherwise stated), were added in triplicate to the wells of a microtiterplate (200 ul per well). The bacterial or yeast cell solutions were added in 10 ul volumes to give a final concentration of approximately 2×10^5 cells per ml. The concentration of the stock solution was always checked by viable counts. The microplate was incubated at 37° C. in a humid chamber for 2 h unless otherwise stated. Five ul were taken from each well and added as a drop onto a blood agar plate and incubated over night at 37° C. In some experiments more thorough viable counts were performed and the killing was expressed as remaining colony forming units in relation to the inoculum. The lower limit for detection of microorganisms was 200 CFU/ml. The antimicrobial activity of human LF was analysed by the microbicidal assay described above. Different microbes such as C. albicans, E. coli and S. aureus were analysed with respect to their survival in lactate (not containing the inert gel base, which makes the gel unsuitable for the microbicidal assay) containing LF. […] LF was incubated together with various concentrations of lactate diluted in 0.2% bactopeptone and C. albicans for 2 h. Thereafter each solution was analysed for viable counts.
# E. coli 06 = test: Microbicidal microplate-droplet assay, E. coli; parameters: key to E. coli killing, growth grade in droplet assay: +++ means that the number of colony forming units (CFU) contained within 5 ul of a droplet formed a smooth layer of bacteria; ++ means that a “ruffled” area is seen; 0 means that no CFU were found in triplicate samples of 5 ul (>99.95 killed of the inoculum)
# Experimental: (§1) The bacterial strains S. aureus 1800 (CCUG 1800), E. coli 06, and the yeast C. albicans (ATCC 64549) have been used in the microplate assay. All microorganisms were cultured in brain heart infusion medium (BHI) on a shaker over night at 37° C. A volume of the culture was transferred to a new tube with BHI and incubated for two more h on the shaker. The bacteria were harvested in the log phase, washed once and thereafter suspended in the broth used for the microplate assay. The suspension was adjusted spectrophotometrically and diluted to a concentration of approximately 4×10^6 cells per ml at 650 nm. Washed cells were suspended in 0.2% BP (pH 7.0) or BHI medium diluted 1/10 (0.34%, pH 6.7-6.9) (Difco, USA). The concentration of bacterial or fungal cells was spectrophotometrically adjusted. LF or peptide, serially diluted in BHIdil or BP by twofold steps (unless otherwise stated), were added in triplicate to the wells of a microtiterplate (200 ul per well). The bacterial or yeast cell solutions were added in 10 ul volumes to give a final concentration of approximately 2×10^5 cells per ml. The concentration of the stock solution was always checked by viable counts. The microplate was incubated at 37° C. in a humid chamber for 2 h unless otherwise stated. Five ul were taken from each well and added as a drop onto a blood agar plate and incubated over night at 37° C. In some experiments more thorough viable counts were performed and the killing was expressed as remaining colony forming units in relation to the inoculum. The lower limit for detection of microorganisms was 200 CFU/ml. The antimicrobial activity of human LF was analysed by the microbicidal assay described above. Different microbes such as C. albicans, E. coli and S. aureus were analysed with respect to their survival in lactate (not containing the inert gel base, which makes the gel unsuitable for the microbicidal assay) containing LF.
# [1] = tested on: S. aureus 1800 (CCUG 1800); test: Microbicidal microplate-droplet assay, S. aureus
# Experimental: as §1
# L. jensenii = test: Survival of L. jensenii in lactate with LF; conditions: lactate 1%, 0.34% BHI, CO2, 3 h
# Experimental: L. gasseri and L. jensenii were cultured on chocolate-agar plates for 24 h in 5% CO2/95% air. They were thereafter harvested and added to BHI (0.34%). After washing the bacterial solutions were adjusted spectrophotometrically and diluted to 8×10^6 bacteria/ml.
# Washed cells were suspended in 0.2% BP (pH 7.0) or BHI medium diluted 1/10 (0.34%, pH 6.7-6.9) (Difco, USA). The concentration of bacterial or fungal cells was spectrophotometrically adjusted. LF or peptide, serially diluted in BHIdil or BP by twofold steps (unless otherwise stated), were added in triplicate to the wells of a microtiterplate (200 ul per well). The bacterial or yeast cell solutions were added in 10 ul volumes to give a final concentration of approximately 2×10^5 cells per ml. The concentration of the stock solution was always checked by viable counts. The microplate was incubated at 37° C. in a humid chamber for 2 h unless otherwise stated. Five ul were taken from each well and added as a drop onto a blood agar plate and incubated over night at 37° C. In some experiments more thorough viable counts were performed and the killing was expressed as remaining colony forming units in relation to the inoculum. The lower limit for detection of microorganisms was 200 CFU/ml.
# L. gasseri survived better in the assay system than did L. jensenii. Undiluted lactate (5%) affected the survival of Lactobacillus.
# [2] = in the absence or presence of LF
structure (smiles),measurement,setting,value
"Cl [HCl, hydrogen chloride, reference compound]",Candidacidal activity with lactate replaced by HCl,"C. albicans (ATCC 64549); HCl giving the same pH as lactate, undiluted, with LF",reduced Candidacidal activity
"CC(O)C(=O)O (stereo not drawn) [lactate, α-hydroxipropionic acid]",reduction of Candida,"C. albicans (ATCC 64549); lactate 1% without LF, 2 h",65%
same,antifungal activity,C. albicans (ATCC 64549); undiluted lactate,an antifungal activity was observed
same,survival of C. albicans,"C. albicans (ATCC 64549); undiluted lactate (5%), 2 h",no yeast cells survived
same,antimicrobial activity against C. albicans,"C. albicans (ATCC 64549); undiluted lactate (5%), without LF or HL2",complete
same,antibacterial activity towards E. coli,E. coli 06; [2],good
same,"E. coli killing, growth grade in droplet assay","E. coli 06; lactate 0.2% alone (HLF 0 ug/ml), 2 h incubation",++
same,"E. coli killing, percentage of bacteria remaining in relation to the inoculum","E. coli 06; lactate 0.2% alone (HLF 0 ug/ml), 5 h incubation",5%
same,"E. coli killing, percentage of bacteria remaining in relation to the inoculum","E. coli 06; lactate 1% alone (HLF 0 ug/ml), 5 h incubation",6%
same,"E. coli killing, percentage of bacteria remaining in relation to the inoculum","E. coli 06; lactate 5% alone (HLF 0 ug/ml), 2 h incubation",0 (0 means that no CFU were found in triplicate samples of 5 ul (>99.95 killed of the inoculum))
same,"E. coli killing, percentage of bacteria remaining in relation to the inoculum","E. coli 06; lactate 5% alone (HLF 0 ug/ml), 5 h incubation",0 (0 means that no CFU were found in triplicate samples of 5 ul (>99.95 killed of the inoculum))
same,survival of E. coli,"E. coli 06; undiluted lactate (5%), 2 h",no bacteria survived
same,antimicrobial activity against E. coli,"E. coli 06; undiluted lactate, without LF",complete
same,antibacterial activity towards S. aureus,[1]; [2],good
same,"S. aureus killing, percentage of bacteria remaining in relation to the inoculum","[1]; lactate 0.2% alone (HLF t0 ug/ml), 2 h incubation",0 (0 = no bacteria in triplicate samples of 5 ul (>99.95 killed of the inoculum).)
same,"S. aureus killing, percentage of bacteria remaining in relation to the inoculum","[1]; lactate 0.2% alone (HLF t0 ug/ml), 5 h incubation",0 (0 = no bacteria in triplicate samples of 5 ul (>99.95 killed of the inoculum).)
same,"S. aureus killing, percentage of bacteria remaining in relation to the inoculum","[1]; lactate 1% alone (HLF t0 ug/ml), 2 h incubation",0 (0 = no bacteria in triplicate samples of 5 ul (>99.95 killed of the inoculum).)
same,"S. aureus killing, percentage of bacteria remaining in relation to the inoculum","[1]; lactate 1% alone (HLF t0 ug/ml), 5 h incubation",0 (0 = no bacteria in triplicate samples of 5 ul (>99.95 killed of the inoculum).)
same,"S. aureus killing, percentage of bacteria remaining in relation to the inoculum","[1]; lactate 5% alone (HLF t0 ug/ml), 2 h incubation",0 (0 = no bacteria in triplicate samples of 5 ul (>99.95 killed of the inoculum).)
same,"S. aureus killing, percentage of bacteria remaining in relation to the inoculum","[1]; lactate 5% alone (HLF t0 ug/ml), 5 h incubation",0 (0 = no bacteria in triplicate samples of 5 ul (>99.95 killed of the inoculum).)
same,antimicrobial activity against S. aureus,"[1]; undiluted lactate, without LF",complete
same,survival of L. jensenii,L. jensenii,did not survive

# Reference: patent publication US20080161234A1, “Composition Comprising Lactic Acid and Lactoferrin” (priority 2004, published 2008)
